# From patent publication US8623857B2, “N-phenyl imidazole carboxamide inhibitors of 3-phosphoinositide-dependent protein kinase-1” (Merck Sharp & Dohme Corp., priority 2010, dated 2014)
# Molecular target: T1, recombinant human PDK1 (Homo sapiens, UniProt O15530)
# T1 construct: containing amino acids 51-556 of the human PDK1 enzyme; made in house; host or cells: Sf9 insect cells
# T1 sequence (O15530 51-556): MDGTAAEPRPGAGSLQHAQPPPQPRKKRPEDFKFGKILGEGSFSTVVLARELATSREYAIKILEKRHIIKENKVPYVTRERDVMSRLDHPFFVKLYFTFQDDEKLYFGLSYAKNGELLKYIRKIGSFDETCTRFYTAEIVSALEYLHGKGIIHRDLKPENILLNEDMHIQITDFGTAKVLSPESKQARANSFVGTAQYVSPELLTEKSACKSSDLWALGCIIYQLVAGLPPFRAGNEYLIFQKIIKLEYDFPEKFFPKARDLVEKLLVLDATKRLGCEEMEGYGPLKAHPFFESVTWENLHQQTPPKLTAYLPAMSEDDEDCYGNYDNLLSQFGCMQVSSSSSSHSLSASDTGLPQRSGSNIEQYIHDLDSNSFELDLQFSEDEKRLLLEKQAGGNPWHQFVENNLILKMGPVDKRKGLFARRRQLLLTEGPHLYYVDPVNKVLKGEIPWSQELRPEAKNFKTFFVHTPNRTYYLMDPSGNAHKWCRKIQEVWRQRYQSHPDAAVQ
# Assay: PDK1 IMAP fluorescence polarization assay (inhibition of peptide substrate phosphorylation)
# Format: biochemical
# Details: Table 6; 10 nM PDK1 enzyme, 100 nM peptide substrate, 100 nM PIFtide, 2.5 uM ATP, 1.5 hours
row,SMILES,IC50 [nM]
1,"Cc1cc(-c2c[nH]c(C(=O)Nc3cccc(F)c3N3CCC(CN)CC3)n2)ccn1 [Compound 18, N-[2-[4-(aminomethyl)-1-piperidinyl]-3-fluorophenyl]-4-(2-methyl-4-pyridinyl)-1H-imidazole-2-carboxamide]",1 to 50
2,"CCC1(CN)CCN(c2c(F)cccc2NC(=O)c2nc(-c3ccnc(C)c3)c[nH]2)CC1 [Compound 52, N-[2-[4-(aminomethyl)-4-ethyl-1-piperidinyl]-3-fluorophenyl]-4-(2-methyl-4-pyridinyl)-1H-imidazole-2-carboxamide]",51 to 250
3,"CN(C)CCOc1ccccc1NC(=O)c1nc(-c2c[nH]c3ccccc23)c[nH]1 [Compound 17, N-[2-[2-(dimethylamino)ethoxy]phenyl]-4-(1H-indol-3-yl)-1H-imidazole-2-carboxamide]",251 to 1000
4,"NCC1CCN(c2c(F)cccc2NC(=O)c2nc(-c3cc(NCc4ccc(C(F)(F)F)cc4)nc(N)n3)c[nH]2)CC1 [Compound 70, N-[2-[4-(aminomethyl)-1-piperidinyl]-3-fluorophenyl]-4-[2-amino-6-[[[4-(trifluoromethyl)phenyl]methyl]amino]-4-pyrimidinyl]-1H-imidazole-2-carboxamide]",51 to 250
5,"NCC1CCN(c2c(F)cccc2NC(=O)c2nc(-c3cc(NCc4ccc(F)c(F)c4)nc(N)n3)c[nH]2)CC1 [Compound 75, 4-[2-amino-6-[[(3,4-difluorophenyl)methyl]amino]-4-pyrimidinyl]-N-[2-[4-(aminomethyl)-1-piperidinyl]-3-fluorophenyl]-1H-imidazole-2-carboxamide]",1 to 50
6,"Cc1cc(-c2c[nH]c(C(=O)Nc3cccc(F)c3N3CCC(CN(C)C)CC3)n2)ccn1 [Compound 50, N-[2-[4-[(dimethylamino)methyl]-1-piperidinyl]-3-fluorophenyl]-4-(2-methyl-4-pyridinyl)-1H-imidazole-2-carboxamide]",251 to 1000
7,"N[C@@H]1CCCN(c2c(F)cccc2NC(=O)c2nc(C3=CCOCC3)c[nH]2)C1 [Compound 22, N-[2-(3(R)-amino-1-piperidinyl)-3-fluorophenyl]-4-(3,6-dihydro-2h-pyran-4-yl)-1H-imidazole-2-carboxamide]",251 to 1000
8,"CC(=O)c1ccc(-c2c[nH]c(C(=O)Nc3cccc(F)c3N3CCC(CN)CC3)n2)s1 [Compound 45, 4-(5-acetyl-2-thienyl)-N-[2-[4-(aminomethyl)-1-piperidinyl]-3-fluorophenyl]-1H-imidazole-2-carboxamide]",1000 to 5000
9,"Cc1cc(-c2c[nH]c(C(=O)Nc3cccc(F)c3N3CCC(C(=O)N4CCC5(CC4)CNC5)CC3)n2)ccn1 [Compound 94, N-[2-[4-(2,7-diazaspiro[3.5]noN-7-ylcarbonyl)-1-piperidinyl]-3-fluorophenyl]-4-(2-methyl-4-pyridinyl)-1H-imidazole-2-carboxamide]",51 to 250
10,"COC(=O)c1cccc(-c2c[nH]c(C(=O)Nc3cccc(F)c3N3CCC(CN)CC3)n2)c1 [Compound 56, methyl 3-[2-[[[2-[4-(aminomethyl)-1-piperidinyl]-3-fluorophenyl]amino]carbonyl]-1H-imidazol-4-yl]benzoate]",51 to 250
11,"Cc1cc(-c2c[nH]c(C(=O)Nc3cccc(F)c3N3CCC(C(=O)NCC(O)C(F)(F)F)CC3)n2)ccn1 (stereo not shown) [Compound 62, 1-[2-fluoro-6-[[[4-(2-methyl-4-pyridinyl)-1H-imidazol-2-yl]carbonyl]amino]phenyl]-N-(3,3,3-trifluoro-2-hydroxypropyl)-4-piperidinecarboxamide]",1000 to 5000
12,"NCC1CCN(c2c(NC(=O)c3nc(-c4ccnc(N)c4)c[nH]3)ccc(F)c2F)CC1 [Compound 28, N-[2-[4-(aminomethyl)-1-piperidinyl]-3,4-difluorophenyl]-4-(2-amino-4-pyridinyl)-1H-imidazole-2-carboxamide]",51 to 250
13,"Cc1cc(-c2c[nH]c(C(=O)Nc3cccc(F)c3N3CCC(C(=O)NCC4(N)CCCC4)CC3)n2)ccn1 [Compound 88, N-[(1-aminocyclopentyl)methyl]-1-[2-fluoro-6-[[[4-(2-methyl-4-pyridinyl)-1H-imidazol-2-yl]carbonyl]amino]phenyl]-4-piperidinecarboxamide]",51 to 250
14,"NCC1CCN(c2c(F)cccc2NC(=O)c2nc(-c3cc(C(N)=O)nc(O)n3)c[nH]2)CC1 [Compound 68, 6-[2-[[[2-[4-(aminomethyl)-1-piperidinyl]-3-fluorophenyl]amino]carbonyl]-1H-imidazol-4-yl]-2-hydroxy-4-pyrimidinecarboxamide]",1 to 50
15,"CNCCCCNC(=O)C1CCN(c2c(F)cccc2NC(=O)c2nc(-c3ccnc(C)c3)c[nH]2)CC1 [Compound 85, 1-[2-fluoro-6-[[[4-(2-methyl-4-pyridinyl)-1H-imidazol-2-yl]carbonyl]amino]phenyl]-N-[4-(methylamino)butyl]-4-piperidinecarboxamide]",251 to 1000
16,"NCC1CCN(c2c(F)cccc2NC(=O)c2nc(-c3cc(N[C@@H](CO)c4ccccc4)nc(N)n3)c[nH]2)CC1 [Compound 72, 4-[2-amino-6-[[2-hydroxy-1(R)-phenylethyl]amino]-4-pyrimidinyl]-N-[2-[4-(aminomethyl)-1-piperidinyl]-3-fluorophenyl]-1H-imidazole-2-carboxamide]",1 to 50
17,"Cc1cc(-c2c[nH]c(C(=O)Nc3cccc(F)c3N3CCC[C@@H](N)C3)n2)nc(N)n1 [Compound 29, 4-(2-amino-6-methyl-4-pyrimidinyl)-N-[2-(3(R)-amino-1-piperidinyl)-3-fluorophenyl]-1H-imidazole-2-carboxamide]",1 to 50

# Same assay, conditions: Table 10; compounds 97-132
row,SMILES,IC50 [nM]
1,"Cc1cc(-c2c[nH]c(C(=O)Nc3cccc(F)c3N3CCC[C@@H](N)C3)n2)cc(Cl)n1 [Compound 98, (R)—N-(2-(3-aminopiperidin-1-yl)-3-fluorophenyl)-4-(2-chloro-6-methylpyridin-4-yl)-1H-imidazole-2-carboxamide]",251 to 1000
2,"CNc1nc(-c2c[nH]c(C(=O)Nc3cccc(F)c3N3CCC(CN)CC3)n2)cc(N2CCNC[C@H]2C)n1 [Compound 120, (R)—N-(2-(4-(aminomethyl)piperidin-1-yl)-3-fluorophenyl)-4-(2-(methylamino)-6-(2-methylpiperazin-1-yl)pyrimidin-4-yl)-1H-imidazole-2-carboxamide]",1 to 50
3,"CNc1nc(-c2c[nH]c(C(=O)Nc3cccc(F)c3N3CCC(CN)CC3)n2)cc(N2CCC(NC)(C(N)=O)CC2)n1 [Compound 127, 1-(6-(2-(2-(4-(aminomethyl)piperidin-1-yl)-3-fluorophenylcarbamoyl)-1H-imidazol-4-yl)-2-(methylamino)pyrimidin-4-yl)-4-(methylamino)piperidine-4-carboxamide]",1 to 50
4,"CNc1nc(-c2c[nH]c(C(=O)Nc3cccc(F)c3N3CCC4(CCNC4)CC3)n2)cc(N2CC(C(=O)NC3CCCCC3)CCC2C)n1 (racemic) [Compound 119, N-cyclohexyl-1-(6-(2-(3-fluoro-2-(2,8-diazaspiro[4.5]decan-8-yl)phenylcarbamoyl)-1H-imidazol-4-yl)-2-(methylamino)pyrimidin-4-yl)-6-methylpiperidine-3-carboxamide]",1 to 50
5,"CC1CCC(C(=O)NC2CCCCC2)CN1c1cc(-c2c[nH]c(C(=O)Nc3cc(N)ccc3N3CCC4(CCCNC4)CC3)n2)nc(N)n1 (racemic) [Compound 112, 1-(2-amino-6-(2-(5-amino-2-(2,9-diazaspiro[5.5]undecan-9-yl)phenylcarbamoyl)-1H-imidazol-4-yl)pyrimidin-4-yl)-N-cyclohexyl-6-methylpiperidine-3-carboxamide]",1 to 50
